Data as given in patent US11040056B2, “Benzimidazoles that enhance the activity of oligonucleotides” (The University of North Carolina at Chapel Hill, priority 2018, dated 2021).

Assays:
[1] = tested on: P-glycoprotein (Pgp) expression in NIH-3T3-MDR cells; assay: ASO mediated inhibition of MDR1 gene expression (Pgp by flow cytometry); assay type: cell-based, mouse; conditions: 100 nM anti-MDR1 ASO 16 h; 10 μM UNC2383 2 h where used; 48 h
Protocol: FIG. 4. Effects with ASOs. Reduction of Pgp expression. NIH 3T3-MDR cells were incubated with 100 nM anti-MDR1 ASO or a mismatched (MM) control for 16 h in DMEM+1% FBS. Cells were rinsed and then treated with 10 μM UNC2383 for 2 h. The compound was removed, and the cells further incubated for 48 h. Expression of Pgp on the cell surface was determined by treating cells with Alexa 488 labeled anti-Pgp monoclonal antibody and binding quantitated by flow cytometry (PE(A)=units of fluorescence intensity). Treatment with ASO complexed with Lipofectamine 2000 (L2K) was a positive control. Y axis, cell counts; X axis, Alexa 488 fluorescence. […] Means±SE, N=3.
We also tested UNC2383 for its ability to affect ASOs rather than SSOs. The ASO was designed to inhibit expression of the MDR1 gene and its product the P-glycoprotein multidrug transporter. […] Cell surface expression of P-glycoprotein was monitored using an Alexa 488 labeled anti-Pgp monoclonal antibody and flow cytometry. […]
SSO-mediated luciferase induction assays were conducted as previously described. (18) In short, HeLaLuc705 cells in 24 well culture plates were preincubated with SSO623 followed by brief treatment with the small molecule; at intervals thereafter, luciferase activity and protein content were determined. […] Cytotoxicity of 2383 was monitored using the Alamar Blue assay. […]

[2] = tested on: lysosomes of HeLa Luc 705 cells; assay: Lysotracker Red accumulation assay; assay type: cell-based; conditions: 2 μM
Protocol: FIG. 9A-9D. Effects on lysosomes. FIG. 9A: Lysotracker uptake. Accumulation of Lysotracker Red in HeLa Luc 705 cells was measured after a 2 h exposure of cells to the indicated concentrations of various analogs. The lysosomotropic compound chloroquine was included as a positive control. Means of triplicate determinations are shown. The color-coded numbers refer to the fold increase in luciferase induction attained by the concentration of analog associated with the adjacent symbol on the graph. The numbers are taken from the data of FIG. 1C for UNC2383 and FIG. 4 for UNC4267, UNC4258, and UNC4428. FIG. 9B: LT50 vs TC50. […] Nonlinear regression was calculated using Prism software. The R^2 value for the plot is 0.91. FIG. 9C: 2383 vs chloroquine; luciferase induction. HeLa Luc705 cells were exposed to SSO623 and then treated with various concentrations of UNC2383 or chloroquine for 2 h and then tested for luciferase induction following the methods described in FIG. 1B-FIG. 1E. […]
The integrity of lysosomes was evaluated using the fluorescent probe Lysotracker Red (Thermo Fisher). […] Cells were thoroughly rinsed in PBS, lysed in 0.2% TX 100, and centrifuged briefly at 4000 rpm, and 100 uL of the supernate was distributed to black 96 well plates for analysis of fluorescence using a FLUOstar Omega 96 well microplate reader.

[3] = tested on: EGFP654 mouse tracheal epithelial cells (MTEC); assay: Splicing correction (EGFP expression) in EGFP654 mouse tracheal epithelial cells; assay type: cell-based; conditions: 1 uM SSO PS623 basolateral overnight, 3 uM OEC apical 2 hr
Protocol: FIG. 13. EGFP654 Mouse tracheal cells. Well-differentiated tracheal epithelial cells derived from the EGFP654 mouse were treated basolaterally with 1 uM SSO PS623 (overnight) and apically with 3 uM OEC2383 (2 hr) or vehicle. Confocal microscopy images (xy, xz planes), bar=20 um.
FIG. 15B: P-PMO+OEC mediated splicing correction in EGFP654 MTEC. Well-differentiated cultures of primary tracheal cells (MTEC) derived from the EGFP654 mouse were treated with only one dose of P-PMO“654” (0.5 uM, overnight) followed by vehicle (−) or OEC2383 or OEC7938 (+), (10 uM, 2 hs). Both the SSO and OEC were added in cell medium either into the basolateral (BL, 400 ul) or the apical (AP, 30 ul) sides. MTEC were imaged in face at low mag. with a 10× lens in a fluorescence microscope, after 48 hs and 65 days post-treatment. All wells had the same total cell numbers. Vehicle controls<10 cells/well; n=3, bar=70 um. 1) Basolateral delivery of one treatment of P-PMO and OEC corrected>70% MTEC/well at 48 hs post-treatment. EGFP expression was still evident in large groups of cells after 65 days.
Methods: SSO623 (1 uM) was incubated basolaterally overnight in well-differentiated primary tracheal epithelial cells (MTEC) derived from the EGFP654 mouse (Wang et al, 2017); OEC2383 was administered apically or basolaterally (1-4 uM for 2-3 hs). […]

O=C(Nc1nc2ccccc2n1CCN1CCCC1)c1cc2cc(Cl)ccc2o1 [UNC2383]
Pgp expression on the cell surface [1]: substantial reduction
effect on lysotracker accumulation [2]: little effect
EGFP expression / enhancing activity in MTEC [3]: notably expressed
